# Assay results: US20190314196A1, “Topical Ocular Delivery Methods and Devices for Use in the Same” (Kedalion Therapeutics, Inc., priority 2018, published 2019)
# Experiments:
# Type in all cases: in vivo, human
# [1] = system: patients diagnosed with primary open angle glaucoma; assay: Trial 2: intraocular pressure reduction, Goldmann applanation tonometry; conditions: for Post-treatment IOP, Mean: 0.005% w/v, N=18 eyes; for Post-treatment IOP, Mean / average decrease in IOP measured per patient / Post-treatment IOP, Median: approx. 8 hours after dosing; for Post-treatment IOP, Median: baseline median 18.0; for Total pressure reduction, Mean / Total pressure reduction, Median: signed change from baseline
# Description: Trial 2 compared the efficacy (dose volume equivalence) of 0.005% w/v latanoprost for intraocular pressure reduction when delivered via AcuStream™ (pre-trial calibration volume=9.2 μl) versus the standard eye dropper for topical drug delivery (approximate volume=30 μl).
# Patients included in Trial 2 have previously been diagnosed with primary open angle glaucoma on the basis of intraocular pressure and visual field testing, fundus examination or optical coherence tomography (OCT) data and are currently on prostaglandin analog medical therapy. Patients with corneal abnormalities that would interfere with accurate IOP measurements with applanation tonometry, use of an oral or topical ophthalmic steroids within the past 14 days from screening date, any active ocular surface or anterior segment disease, or progressive field loss during the past year were excluded from the study. Thirteen men and five women participated in the trial.
# Recruited patients were taken off medical therapy for a period of 3-4 weeks prior to the study to allow drug “wash out”, thereby elevating their IOPs to pre-treatment levels which was confirmed by examination of the patients' chart history. Patients were randomly assigned as “test” (AcuStream™), or “control” (standard eye dropper). The mean age of the control group and test group were 61.0 years and 65.2 years, respectively.
# The patients assigned to either the “test” or “control” group by means of a random numbers table in order to mitigate any potential cross-over effects that could confound data interpretation. An odd number dictated that the patient was in the test group, while even-numbered patients were in the control group.
# After performing slit lamp examinations on each patient to verify eligibility and obtaining informed consent, intraocular pressure (IOP) was measured by a sole experienced examiner who was blind to the randomized conditions. A pre-calibrated Goldmann applanation tonometer coupled to a Haag-Streit 900 EQ slit lamp was used to conduct baseline IOP measurements. Once baseline IOP data were verified to be equivalent to pre-medical therapy levels (based on patient's treatment history), the patient then continued to the dosing stage of the study.
# Latanoprost solution was administered by a sole ophthalmologist to both eyes of each patient, based on the pre-determined randomized condition.
# eye of subjects [2] = assay: Presbyopia: pupil diameter after self-administered pilocarpine micro-dose
# Description: (§1) A 10 μl micro-dose of a 1% pilocarpine solution was self-administered using an electromagnetic actuated fluid delivery device, e.g., as described above, by three subjects to their own eye. The age range of the subjects was 52 years to 68 years, and all subjects were male. The pilocarpine micro-dose was self-administered by the subjects.
# (§2) Baseline, pre-dose values of pupil diameter and near visual acuity in both eyes prior to dosing was measured for all subjects, and then following the baseline measurements, the subjects were dosed in only one eye (the eye with the poorer visual acuity) with the micro-dose pilocarpine solution. Approximately 45 to 60 minutes after dosing, pupil diameter and near visual acuity were again tested. Near visual acuity was measured using a Snellen card at a distance of 40 cm. A tabulation of results is given below in Table A.
# eye of subjects [3] = assay: Presbyopia: near visual acuity, Snellen card at 40 cm; conditions: 45 to 60 minutes after dosing
# Description: as §1, §2
# [4] = standard eye dropper control group
smiles,measurement,setting,value
CC(C)OC(=O)CCC/C=C\C[C@@H]1[C@@H](CC[C@@H](O)CCc2ccccc2)[C@H](O)C[C@@H]1O [latanoprost],difference in IOP reduction between groups,[1]; AcuStream 9.2 μl versus standard eye dropper 30 μl,no statistically significant differences
same,"Post-treatment IOP, Mean","[1]; AcuStream test group, 9.2 μl, baseline 18.6",13.6 mm Hg
same,average decrease in IOP measured per patient,[1]; AcuStream test group,5.0 mm Hg
same,"Post-treatment IOP, Median",[1]; AcuStream test group,13.0 mm Hg
same,"Total pressure reduction, Mean",[1]; AcuStream test group,−5.0 mm Hg
same,"Total pressure reduction, Median",[1]; AcuStream test group,−5.0 mm Hg
same,"post-instillation IOP (OD), single patient outlier","[1]; control group, baseline IOP 30 mm Hg",17 mm Hg
same,"equivalence of 9.2 μl AcuStream dose to 30 μl standard eye drop, intraocular pressure reduction",[1]; latanoprost 0.005% w/v,pharmacodynamic equivalence
same,"Post-treatment IOP, Mean","[1]; standard eye dropper control group, approx. 30 μl, baseline 17.7",13.3 mm Hg
same,average decrease in IOP measured per patient,[1]; [4],4.3 mm Hg
same,"Post-treatment IOP, Median",[1]; [4],12.0 mm Hg
same,"Total pressure reduction, Mean",[1]; [4],−4.3 mm Hg
same,"Total pressure reduction, Median",[1]; [4],−4.0 mm Hg
CC[C@@H]1C(=O)OC[C@@H]1Cc1cncn1C [pilocarpine],Mean change in dosed pupil dia,"eye of subjects [2]; dosed eye, 10 μl micro-dose of 1% solution, 45 to 60 minutes after dosing, 3 subjects",−0.7 mm
same,Mean post-dose pupil dia,"eye of subjects [2]; dosed eye, 10 μl micro-dose of 1% solution, 45 to 60 minutes after dosing, 3 subjects, baseline mean 2.9 mm",2.2 mm
same,mean reduction in pupil diameter,"eye of subjects [2]; dosed eye, 10 μl micro-dose of 1% solution, all subjects",0.70 mm
same,miotic effect in non-dosed eye,eye of subjects [2]; non-dosed contralateral eye,no miotic effect
same,Mean change in non-dosed pupil dia,"eye of subjects [2]; non-dosed contralateral eye, 45 to 60 minutes after dosing",0.2 mm
same,Mean non-dose pupil dia,"eye of subjects [2]; non-dosed contralateral eye, 45 to 60 minutes after dosing, baseline mean 2.8 mm",3.0 mm
same,Median dosed eye near visual acuity,eye of subjects [3]; baseline median 20/30,20/20
same,# of lines change in visual acuity (mean improvement),"eye of subjects [3]; dosed eye, 3 subjects",2 lines
